{"source": "patent EP1000624A1", "about": "“Use of DOP as antioxidant, anti-ageing additive and medicament” (priority 1998, dated 2000)", "key": {"[1]": {"tested_on": "Kornea, Iris und Konjunktiva", "experiment": "eye irritation test according to EU Commission 93/21/EEC", "assay_type": "in vivo, Kaninchen", "details": "rabbit; effects on cornea, iris and conjunctiva after 24, 48 and 72 hours", "description": "(§1) Um festzustellen, ob DOP Reizungen der Augen oder der Haut hervorrufen kann, wurde am Kaninchen ein Augenreiztest und ein Hautreiztest durchgeführt, beide gemäß der Verordnung der EU-Kommission Nr. 93/21/EEC vom 27.04.1993."}, "acute toxicity, peroral": {"experiment": "acute toxicity, peroral", "parameters": "species or system Ratte", "details": "in vivo, po, rat", "protocol": "Die akute Toxizität von DOP wurde peroral an der Ratte bestimmt; die letale Dosis, bei der 50% der Versuchstiere verenden (LD50), beträgt mehr als 2000 mg/kg."}, "Haut": {"tested_on": "Haut", "experiment": "skin irritation test according to EU Commission 93/21/EEC", "assay_type": "in vivo, Kaninchen", "details": "rabbit; after 24, 48 and 72 hours", "description": "as §1"}}}
{"compound": "O=[PH]1Oc2ccccc2-c2ccccc21", "note": "(stereo not shown) [DOP, (6H)-Dibenz-(c,e)(1,2)-oxaphosphorin-6-on]", "values": [{"measurement": "Augenreiztest: Einstufung", "setting": "[1]", "value": "nicht augenreizend"}, {"measurement": "LD50", "setting": "acute toxicity, peroral", "value": "> 2000", "unit": "mg/kg"}, {"measurement": "Hautreiztest: Einstufung", "setting": "Haut", "value": "nicht hautreizend"}, {"measurement": "Hautreiztest: Erythembildung / Oedembildung", "setting": "Haut", "value": "weder eine Erythembildung noch eine Oedembildung"}]}
